Patent US20220280507A1, “USES OF 5-METHYLTETRAHYDROFOLATE AND ITS COMPOSITION” (Lianyungang Jinkang Hexin Pharmaceutical Co., Ltd., priority 2019, published 2022)
Where two headings read alike, the source gives them in different places.

Assays:
[1] = test system: alcoholic liver damage and fatty liver; test: Alcoholic fatty liver model, serum TG, TC, SOD, MDA and liver histopathology; assay type: in vivo, SD rats; settings: for MDA / SOD: day 61, liquor model; for MDA / SOD / TC / TG: n=16; for Pathological examination of liver: liquor model; for TC / TG: serum day 61, liquor model
Experimental: 96 SPF-grade SD rats were chosen in half female and half male with an average weight of 176-220 g at the beginning of the experiment. According to their weight, they were randomly divided into vehicle control group (purified water, ig), model control group (liquor, 10 ml·Kg−1), positive control group (bicyclol, 50 mg·Kg−1, ig), folic acid calcium salt high-dose group (4 mg·Kg−1), folic acid calcium salt medium-dose group (2 mg·Kg−1), folic acid calcium salt low-dose group (1 mg·Kg−1), in half female and half male, and 16 rats in each group. Purified water was used as a negative control, and bicyclol (place of origin: Beijing Xiehe Pharmaceutical Factory, specification: 25 mg/tablet, batch number: H20040467) was used as a positive control drug. Route of administration: all were administered by oral gavage. Dosage of administration: 1 mg·Kg−1, 2 mg·Kg−1, and 4 mg·Kg−1. Frequency of administration: once a day for 60 consecutive days. Erguotou (batch number: 201603092, specification: 2L, place of origin: Beijing Shunxin Agriculture Co., Ltd.) model establishing method: gavage with diluted 56-degree Erguotou twice a day for 60 consecutive days.
Method of administration: administration started at prescribed doses on the day of modeling for 60 consecutive days and ended at the 60th day. At the same time, rats in each group were weighed every other week during administration period to monitor their body weight changes. On the 61st day, rats were dissected and serum was collected for determination of triglyceride (TG), total cholesterol (TC), malondialdehyde (MDA), superoxide dismutase (SOD) and liver histopathologic examination. The brain tissue of rats was taken out, and hippocampus tissue was separated on ice plate, prepared to homogenate with a mass fraction of 10% with purified water, then the homogenate was centrifuged to obtain supernatant. ELISA was used to detect the levels of inflammatory factors TNF-α and IL-1β in hippocampus tissue with continuous spectrum scanning microplate reader.

[2] = test system: brain tissue of rats; settings: n=5
Experimental: Experiment 11 Effects of Drinking and 5-Methyltetrahydrofolate on the Concentrations of Formaldehyde and Formate in the Brain of Rats
The concentrations of formaldehyde and formate, as well as those of serotonin and dopamine in brain tissue of rats were detected at this time. SPF-grade female SD rats, fasted overnight, were divided into 4 groups.
(1) Ethanol group, with intragastric administration of ethanol at a dose of 1 g/kg respectively at 1, 2, 3 h, n=5; (2) control group, with intragastric administration of glucose at a dose of 1.6 g/kg (equivalent to alcohol calories) respectively at 1, 2, and 3 h, n=5; (3) 5-methyltetrahydrofolate group, with intragastric administration of 5-methyltetrahydrofolate calcium at a dose of 4 mg/kg at 0 h, followed by glucose at a dose of 1.6 g/kg (equivalent to alcohol calories) respectively at 1, 2, and 3 h, n=5; (4) 5-methyltetrahydrofolate alcohol group, with intragastric administration of 5-methyltetrahydrofolate calcium at a dose of 4 mg/kg at 0 h, followed by ethanol at a dose of 1 g/kg respectively at 1, 2, and 3 h, n=5.
Gas chromatography was used to detect methanol and ethanol concentrations in blood of rats, and HPLC was used to detect formaldehyde concentration in brain tissue. 0.1 g of brain tissue was taken and 0.5 ml of SDN lysate was added to make homogenate, then 0.5 ml of trifluoroacetic acid was added. The sample was centrifuged at 4° C., 0.4 ml of supernatant was collected, 0.1 ml DNPH (1 g/L) was added, mixed and incubated in 60° C. water bath for 30 min, centrifuged at 4° C., and supernatant was collected to detect formaldehyde concentration. Fluorescence spectrometry was used to detect formate concentration in brain. Serotonin and dopamine enzyme-linked immunosorbent reagent was used to detect neurotransmitters in brain in strict accordance with the instructions.

[3] = test system: homocysteine (Hcy); test: Homocysteine (Hcy) in plasma of alcohol drinking rats; assay type: in vivo, SD rats; settings: plasma 6 h after Erguotou 20 ml·Kg−1
Experimental: Experiment 2 Effect of 5-methyltetrahydrofolate on homocysteine (Hcy) in plasma of alcohol drinking rats.
30 SPF-grade SD rats were chosen in half male and half female, and divided into 5 groups with 6 rats in each group, including normal group, model group, positive drug group (Weihe Liver Protectant), 5-methyltetrahydrofolate administration groups (4 mg·Kg−1 medium dose group, 8 mg·Kg−1 high dose group, respectively). After fasting for 12 h, the administration groups were given Weihe Liver Protectant at 50 mg·kg−1, 5-methyltetrahydrofolate (Jinkang Hexin product) at 4 mg·Kg−1, 5-methyltetrahydrofolate (Jinkang Hexin product) at 8 mg·Kg−1, respectively. […] 6 h after drinking, blood was collected from the eye socket, treated with 0.5% EDTA-Na for anticoagulation (10 ml/L), immediately cooled in an ice bath, and centrifuged at 4° C. (3500r/min) for 15 min within 30 min. Plasma was collected and stored at −20° C. The plasma Hcy concentration was determined with high pressure liquid chromatography-fluorescence detection method.

[4] = 5-methyltetrahydrofolate calcium 4 mg/kg ig at 0 h + ethanol 1 g/kg at 1, 2, 3 h, 24 h after drinking
[5] = 5-methyltetrahydrofolate calcium 4 mg/kg ig at 0 h + glucose 1.6 g/kg at 1, 2, 3 h, 24 h

Compound: 5-methyltetrahydrofolate calcium
- MDA ([1]; 1 mg·kg−1·d−1 ig 60 d): 45.20 ± 8.17 nmol/mgprot
- SOD ([1]; 1 mg·kg−1·d−1 ig 60 d): 253.20 ± 24.66 U/mgprot
- MDA ([1]; 2 mg·kg−1·d−1 ig 60 d): 42.17 ± 8.65 nmol/mgprot
- SOD ([1]; 2 mg·kg−1·d−1 ig 60 d): 257.41 ± 31.28 U/mgprot
- MDA ([1]; 4 mg·kg−1·d−1 ig 60 d): 47.96 ± 10.28 nmol/mgprot
- SOD ([1]; 4 mg·kg−1·d−1 ig 60 d): 248.87 ± 34.64 U/mgprot
- Pathological examination of liver ([1]; high-dose group 4 mg·Kg−1 ig 60 d): no hyperplasia of interstitial connective tissue and fatty degeneration of hepatocytes
- Pathological examination of liver ([1]; low-dose group 1 mg·Kg−1 ig 60 d): a few fatty vacuoles in hepatocytes, and no obvious hyperplasia of interstitial connective tissue
- Pathological examination of liver ([1]; medium-dose group 2 mg·Kg−1 ig 60 d): no hyperplasia of interstitial connective tissue and fatty degeneration of hepatocytes
- TC ([1]; 1 mg·kg−1·d−1 ig 60 d): 1.42 ± 0.36 mmol/L
- TG ([1]; 1 mg·kg−1·d−1 ig 60 d): 1.08 ± 0.34 mmol/L
- TC ([1]; 2 mg·kg−1·d−1 ig 60 d): 1.50 ± 0.37 mmol/L
- TG ([1]; 2 mg·kg−1·d−1 ig 60 d): 1.03 ± 0.50 mmol/L
- TC ([1]; 4 mg·kg−1·d−1 ig 60 d): 1.47 ± 0.44 mmol/L
- TG ([1]; 4 mg·kg−1·d−1 ig 60 d): 1.04 ± 0.43 mmol/L

Compound: CN1c2c([nH]c(N)nc2=O)NCC1CNc1ccc(C(=O)N[C@@H](CCC(=O)O)C(=O)O)cc1 (stereo partly drawn) [5-methyltetrahydrofolate, N-[4-[[(2-amino-1,4,5,6,7,8-hexahydro-4-oxo-5-methyl-(6S), -(6R), and (6R,S)-pteridyl)methyl)amino)toluoyl-glutamic acid]
- 5-hydroxytryptamine in brain tissue [2, 4]: 0.10 ± 0.1 µg/L
- Dopamine in brain tissue [2, 4]: 27 ± 4 ng/L
- Formaldehyde in brain tissue [2, 4]: 1.14 ± 0.31 mg/L
- Formate in brain tissue [2, 4]: 5.5 ± 0.4 mg/L
- 5-hydroxytryptamine in brain tissue [2, 5]: 0.12 ± 0.04 µg/L
- Dopamine in brain tissue [2, 5]: 35 ± 3 ng/L
- Formaldehyde in brain tissue [2, 5]: 0.39 ± 0.11 mg/L
- Formate in brain tissue [2, 5]: 2.1 ± 0.2 mg/L
- Hcy ([3]; 4 mg·Kg−1, n=6): 3.13 ± 1.26 µmol/L
- Hcy ([3]; 8 mg·Kg−1, n=6): 2.32 ± 1.49 µmol/L
